We go through 1 compound from patent US6884577B2, “Methods for screening compounds for estrogenic activity” (The Regents of the University of California, priority 1993, dated 2005).

One experiment relates to MCF-7 cell. The conditions noted are these: Braacke et al. 1991; cited from earlier work.
In experiment [1] the test system is ER at the AP1 site of the collagenase promoter, F9 cells. In words: Δcoll73 CAT reporter in F9 cells with transiently transfected ER. The conditions noted are these: no c-Jun/c-fos, FIG. 1B. Type of experiment: cell-based, human. An excerpt: Cells were maintained and transfected as previously described in Webb et al., supra. […] […] The cells were glycerol shocked and refed in growth medium containing hormone or ethanolic vehicle.

Experiment [2] deals with ER at classical ERE, Ishikawa cells. In words: ERE-coll60CAT reporter in Ishikawa cells. It counts as cell-based.
From the text: Left panel, coll73-CAT response with endogenous ER contrasted with the response of an ERE regulated reporter, ERE-coll60CAT. […] Averages of three individual experiments are shown. […] A single representative experiment with triplicate hormone treatments is shown.
(§3) To further explore this phenomenon, and to test whether similar hormone effects could be detected at physiological levels of ER, the expression of the collagenase promoter in cells that express endogenous ER was examined.
In experiment [3] the test system is human ER at the AP-1 site (collagenase promoter, AP-1-tk), HeLa cells. In words: CAT assays of HeLa cells transfected with AP-1 site reporter genes and human ER expression vector. Type of experiment: cell-based. The conditions noted are these: transiently expressed human ER, FIG. 2A. As for the experimental part: Representations, at left, show the human collagenase promoter (shaded) and the consensus AP-1 site. […] CAT activity is normalized to a transfection control with the actin promoter driving expression of βHCG. Single representative experiments are shown, error bars represent standard deviation of triplicate hormone treatments.
(§1) Cells were maintained and transfected as previously described in Webb et al., supra. […] F9 cells were seeded at 30% confluence upon 1.5 cm dishes and transfected overnight by calcium phosphate coprecipitation with 5 μg reporter gene, 1 μg actin β-HCG, and 1 μg of HEO, 300 ng each of c-jun and c-fos expression vectors. The cells were glycerol shocked and refed in growth medium containing hormone or ethanolic vehicle.
(§2) CAT assays were carried out as described in Webb et al., except that the cells were harvested one to two days after transfection instead of three. CAT activities were defined as the increase in cpm per hour at room temperature (corrected for background) per 100 μl of cell extract, normalized to production of 100 standard units of βHCG, from a co-transfected reporter gene, actin-HCG. […] Light units were defined as the luciferase activity per 100 μl of cell extract per 100 standard units of βHCG. Relative luciferase activities were calculated with respect to the results that were obtained in the absence of ER and hormone, which was set at 1 unit. For the data presented in Table I triplicate points were determined.
To further examine the effects of antiestrogens on the AP-1 directed pathway, reporter genes derived from the human collagenase promoter were transfected into HeLa cells.
(In a reporter assay the amount or activity of a reporter protein is the signal.)

Experiment [4] has as its system human ER at the AP-1 site of the collagenase promoter (coll73). In words: Coll73-LUC luciferase reporter (collagenase promoter with AP-1 site) in cells transfected with human ER expression vector HEO. It counts as cell-based. The conditions noted are these: relative to no ER. As for the experimental part: All reporter genes described below have been modified by digestion with EcoR I and Ndel to remove a AP-I site in the backbone of pUG. […] Coll73-LUC was constructed by cloning a BamHI/Pvull fragment, that spanned the luciferase transcription unit, from pMG3 into coll73, which had been digested with BamHI and SmaI to remove the CAT transcription unit.
as §1, §2
In each case, the cells were transfected with different amounts of the human ER expression vector HEO to determine the optimal response.

In experiment [5] the test system is CHO cells, which lack functioning ER. In words: Negative control: estrogen-responsive reporter constructs in CHO cells which lack functioning ER. The conditions noted are these: same estrogen-responsive reporter constructs. Type of experiment: cell-based. From the text: To examine whether the series 4 compounds induce estrogenic activity through the ER, we tested the ability of ICI 164384 to inhibit the series 4 estrogenic activity. […] As a negative control, CHO cells, which lack functioning ER, were transfected with the same estrogen-responsive reporter constructs and treated with 17β-estradiol and the series 4 hydroxystilbenes.

In experiment [6] the test system is ER at the AP1 site of the human collagenase promoter, ERC1 cells. In words: Collagenase promoter-CAT reporters (Δcoll73, Δcoll60) in ERC1 cells. Type of experiment: cell-based. As for the experimental part: FIGS. 1A and 1B show estrogen stimulation mediated by an AP1 site in ERC1 cells (FIG. 1A) and F9 cells (FIG. 1B). Typical results of CAT assays, normalized for transfection efficiency, following a single transfection are shown opposite. Each point is the mean value of triplicate assays, with standard errors. CAT activities from cells maintained in the absence of hormone are shown as white bars, those in the presence of a saturating concentration (100 nM) of estradiol as black bars.
CAT assays were carried out as described in Webb et al., except that the cells were harvested one to two days after transfection instead of three. CAT activities were defined as the increase in cpm per hour at room temperature (corrected for background) per 100 μl of cell extract, normalized to production of 100 standard units of βHCG, from a co-transfected reporter gene, actin-HCG. Luciferase assays were performed as described by Brasier et al. Methods Enzymol 216:386-97 (1992)) on similar extracts that were used for CAT assays. Light units were defined as the luciferase activity per 100 μl of cell extract per 100 standard units of βHCG. Relative luciferase activities were calculated with respect to the results that were obtained in the absence of ER and hormone, which was set at 1 unit. For the data presented in Table I triplicate points were determined. Standard deviations were less than 20%. […]

The test system of experiment [7] is ER at the AP-1 site of the collagenase promoter. In words: Collagenase promoter reporter in cells that express endogenous ER (Ishikawa, MCF-7, ZR-75-1). Type of experiment: cell-based.
Method: Left panel, coll73-CAT response with endogenous ER contrasted with the response of an ERE regulated reporter, ERE-coll60CAT. Right panel, coll73-LUC response with 3 μg co-transfected expression vector for human ER. Averages of three individual experiments are shown. […] A single representative experiment with triplicate hormone treatments is shown.
as §3

For `C[C@]12CC[C@@H]3c4ccc(O)cc4CC[C@H]3[C@@H]1CC[C@@H]2O` [estradiol, 17β-estradiol], the “MCF-7 cell invasion activity of a re-constituted basement membrane” value with MCF-7 cell is “stimulated”. In experiment [1], the “estrogen response of Δcoll73” value is recorded as “failed to respond”. Besides, the “expression of ERE-coll60” value in experiment [2] is listed as “tenfold”. Moreover, the “activation of the collagenase promoter (coll517, coll73)” value in experiment [3] is reported as “activated”. Also, the “Coll73 Luciferase Activity” value is recorded as 2.5 in experiment [4] (CEF (fibroblast), no hormone, saturating hormone); 3.3 in experiment [4] (CHO (ovary), no hormone, saturating hormone); 2.2 in experiment [4] (CV-1 (kidney), no hormone, saturating hormone); 1.4 in experiment [4] (F9 (teratocarcinoma), no hormone, unliganded ER gave 3.2); 3.4 in experiment [4] (HELA (cervix), no hormone = 1, ICI 1 μM, tamoxifen 5 μM, estradiol 100 nM); 4.3 in experiment [4] (HEP G2 (liver), no hormone, saturating hormone). The “Coll73 Luciferase Activity” value amounted to 8.4 in experiment [4] (MDA453 (breast), no hormone, saturating hormone); 3.3 in experiment [4] (NIH 3T3 (fibroblast), no hormone, saturating hormone); 2.0 in experiment [4] (SHM (myometrium), no hormone, saturating hormone); 2.1 in experiment [4] (SY5Y (neuroblastoma), no hormone, saturating hormone). Besides, the “estrogenic activity in cells lacking functioning ER” value in experiment [5] is recorded as “no estrogenic activity”. The “estrogen response of Δcoll60 (AP1 site removed)” value in experiment [6] is “no estrogen response”. Further, the “stimulation of Δcoll73 (CAT)” value in experiment [6] (100 nM estradiol, FIG. 1A) is “ten fold”. Moreover, in experiment [7] (Ishikawa cells, endogenous receptor, FIG. 4A), the “activation of the collagenase promoter (coll73-CAT)” value was “activated”. Moreover, the “induction of the collagenase promoter (coll73-LUC)” value in experiment [7] (Ishikawa cells, receptor levels raised by transfection) was “inductions became larger”. Also, the “activation of the collagenase promoter” value is “activated” in experiment [7] (MCF-7 cells, endogenous ER, FIG. 4B) and “The same pattern occurred” in experiment [7] (ZR-75-1 cells).
